Assay results reported in PMC13168289, “Potent acridone antimalarial against all three life stages of Plasmodium” (Nature Communications, 2026).

Columns and labels:
blood-stage P. yoelii = assay: 4-day suppression murine model, oral; assay type: in vivo, P. yoelii in CF1 mice
Source text: Animals were housed at the VAPORHCS in Thoren Maxi-Miser microisolator cages (78 sq. in. floor space) with a maximum density of five females or four males per cage. Cages were maintained on a 12-h light/dark cycle and provided with autoclaved nesting materials (nestlets) for environmental enrichment. All mice had ad libitum access to food and water. Four- to five-week-old female and male outbred CF1 mice (Charles River Laboratories, Raleigh, NC, USA) were randomly assigned to treatment and control groups using a simple randomization procedure (e.g., computer-generated random numbers) to ensure balanced distribution of baseline body weights and starting parasitemia levels across all cohorts. Groups of four mice (n = 4, mean body weight of each group was ~30 g) were infected intravenously with 3.5 × 10^4 P. yoelii (Kenya strain, MRA-428) from a donor animal. Drug administration commenced the day after the animals were inoculated (Day 1). The test drug or the drug combination was dissolved in PEG-400 and administered by oral gavage once daily for 4 successive days in the 4-day suppression model, but only once on Day 1 in the single-dose cure model. Blood was collected via the tail vein with the aid of a syringe needle on Day 5 and then at weekly intervals through Day 28. Blood films were Giemsa-stained and examined microscopically to determine the level of parasitemia. All mice were observed daily to assess clinical signs. Animals with observable parasitemia following the experiments were euthanized; animals cleared of parasitemia from their bloodstream were observed daily with assessment of parasitemia performed weekly until Day 28, at which point, the animal(s) were scored as cured of the infection and then humanely euthanized. All treated mice with a negative smear on Day 28 were considered cured (100% protection). […]

[1] = tested on: luciferase-expressing P. berghei sporozoites; assay: liver-stage prophylaxis murine model with IVIS bioluminescence imaging; assay type: in vivo, P. berghei in Albino C57BL/6 mice; conditions: Days -1, 0, 1
Source text: Four- to six-week-old female inbred Albino C57BL/6 mice (18–22 g, Jackson Laboratories, Bar Harbor, ME, USA) were utilized. Animals were assigned unique study numbers via ear tags and cage cards and were randomly assigned to treatment or control groups (n = 5 per group) using a weigh-stratified randomization procedure. All animals were quarantined and acclimatized for 7 days prior to study initiation and were housed in a 12:12 light/dark cycle with food and water provided ad libitum. Mice were infected intravenously with 10^4 luciferase-expressing P. berghei sporozoites (ANKA strain) via tail vein injection on Day 0. Drugs were dissolved in PEG-400 and administered orally once per day on Day -1, Day 0, and Day 1. […] Infection reduction was assessed by comparing the bioluminescence signals emitted by treated groups with signals emitted by the vehicle control-treated group at that time point. Later blood-stage parasitemia was determined via flow cytometry. […] Long-term blood-stage efficacy was evaluated starting on Day 6 post-infection and continued for up to 31 days using flow cytometry.
In vivo antimalarial efficacy studies were performed as described above.

[2] = 7-day repeat dose toxicology study; assay type: in vivo, Sprague Dawley rats; conditions: 25, 100, 400 mg/kg daily oral for 7 days
Experimental: In vivo toxicology and TK studies in rats were performed at SRI International, using the well-established methods[83]–[85]. Rats were housed in microisolator cages with hardwood chip bedding (Sani-Chips; Envigo Teklad) and maintained on a 12 h light/dark cycle. Environmental conditions were controlled at 20–26 °C (68–79 °F) with 30–70% relative humidity. […] Male and female Sprague Dawley outbred rats were randomly assigned to treatment and control groups using a simple randomization procedure to ensure a balanced distribution of baseline weights across all cohorts. […] For TK studies, blood was collected from animals at 6 time points post dose on Day 1 (0.5, 1, 2, 4, 8, and 24 h) and on Day 7 (0.5, 2, 8, 24, 48, and 96 h). Drug levels were determined in collected plasma samples using bioanalytical method developed at SRI. The plasma drug level data were analyzed using Phoenix WinNonlin (version 8.3) software to perform noncompartmental data analysis.

[3] = tested on: normal and G6PD-deficient RBCs; assay: eryptosis assay (annexin-V binding, ROS, forward scatter); assay type: cell-based, human; conditions: 48 h incubation
Experimental: In vitro evaluation of eryptosis as a marker for induced hemolytic toxicity was performed using de-identified human blood samples obtained from the Clinical Trial Center at WRAIR, using established methods[55],[81],[82]. Fresh Li-heparin-anticoagulated blood samples was centrifuged and the platelet and leukocyte-containing supernatant was removed. […] Flow cytometry was employed to estimate stimulators of eryptosis: phosphatidylserine exposure at the cell surface from annexin-V-binding, reactive oxygen species (ROS) formation from 2′,7′-dichlorodihydrofluorescein diacetate (DCFDA) dependent fluorescence, and cell volume from forward scatter. […]
After incubation under the respective experimental condition, cell suspension was washed in Ringer solution containing CaCl2 and then stained with Annexin-V-FITC at 37 °C for 15 min under protection from light. The annexin-V-abundance at the erythrocyte surface was subsequently determined on a FACS Calibur. Annexin-V-binding was measured at an excitation wavelength of 488 nm and an emission wavelength of 530 nm. […]
Oxidative stress was determined utilizing DCFDA. […] The DCFDA-loaded erythrocytes were resuspended in Ringer solution and ROS-dependent fluorescence intensity was measured at an excitation wavelength of 488 nm and an emission wavelength of 530 nm on a FACS Calibur. Subsequently, the geomean of the DCFDA dependent fluorescence was determined. […]

[4] = tested on: P. cynomolgi hypnozoites and schizonts; design: method as in PMID: 21483865; conditions: primary hepatocyte P. cynomolgi assays; ref PMID: 21483865; read-out: in vitro liver-stage IC50; cited from earlier work
[5] = as stated in response to reviewers

| Compound | ED50 (blood-stage P. yoelii; [5]) [mg/kg/day] | ED90 (blood-stage P. yoelii; [5]) [mg/kg/day] | ED50 (blood-stage P. yoelii; female mice, oral) [mg/kg/day] | ED90 (blood-stage P. yoelii; female mice, oral) [mg/kg/day] | curative dose (blood-stage P. yoelii; four consecutive days, oral) [mg/kg/day] | ED50 (blood-stage P. yoelii; male mice, oral) [mg/kg/day] | ED90 (blood-stage P. yoelii; male mice, oral) [mg/kg/day] | protection from liver-stage infection ([1]; 1 mg/kg/day oral) | protection from liver-stage infection ([1]; 4 mg/kg/day oral) | protection from liver-stage infection ([1]; 10 mg/kg/day oral) | tolerability [2] | eryptosis as marker of hemolytic toxicity [3] | IC50 [4] [nM] |
| --- | --- | --- | --- | --- | --- | --- | --- | --- | --- | --- | --- | --- | --- |
| O=c1c2ccc(Oc3ccc(OC(F)(F)F)cc3)cc2[nH]c2cc(Cl)cc(F)c12 [T111] | 0.27 | 0.39 | 0.35 | 0.50 | 10 | 0.33 | 0.46 | did not clear liver-stage infection | did not clear liver-stage infection | full protection | well tolerated, albeit with minor clinical signs | did not show the toxicity seen with TQ | – |
| O=C1C(O)=C([C@H]2CC[C@H](c3ccc(Cl)cc3)CC2)C(=O)c2ccccc21 [ATV, atovaquone] | – | – | – | – | – | – | – | – | – | – | – | – | ~2000 |
